Results reported in ChEMBL document CHEMBL4689842, “EUbOPEN Chemogenomics Library wave 1” (2021).
Where a SMILES comes first, the peptide text is derived from it. [ ]: non-standard residue; d: D form. Arg(Me) = CNC(=N)NCCC[C@H](N)C(=O)O; d4Pal = N[C@H](Cc1ccncc1)C(=O)O; azaGly = NNC(=O)O

Legend:
Assay type in all cases: toxicity, cell-based
HEK-293T = test: Incucyte cell viability with HEK293T; conditions: human, 10 µM, compound concentration 10 uM
Fibroblast = test: Incucyte cell viability with human fibroblast; conditions: 10 µM, compound concentration 10 uM
U2OS = test: Incucyte cell viability with U2OS; conditions: human, 10 µM, compound concentration 10 uM
[1] = 0 h, replicate number 1, timepoint 0 hours
[2] = 24 h, replicate number 2, timepoint 24 hours
[3] = 6 h, replicate number 1, timepoint 6 hours
[4] = 12 h, replicate number 1, timepoint 12 hours
[5] = 18 h, replicate number 1, timepoint 18 hours
[6] = 24 h, replicate number 1, timepoint 24 hours
[7] = 18 h, replicate number 2, timepoint 18 hours
[8] = 6 h, replicate number 2, timepoint 6 hours
[9] = 0 h, replicate number 2, timepoint 0 hours
[10] = 12 h, replicate number 2, timepoint 12 hours
Note: filed as whole numbers so only -1 and 0 and 1 occur.

SMILES | Growth Rate (HEK-293T; [1]) | Growth Rate (HEK-293T; [2]) | Growth Rate (Fibroblast; [1]) | Growth Rate (Fibroblast; [3]) | Growth Rate (Fibroblast; [4]) | Growth Rate (Fibroblast; [5]) | Growth Rate (Fibroblast; [6]) | Growth Rate (U2OS; [1]) | Growth Rate (U2OS; [4]) | Growth Rate (U2OS; [5]) | Growth Rate (U2OS; [7]) | Growth Rate (U2OS; [6]) | Growth Rate (HEK-293T; [5]) | Growth Rate (HEK-293T; [6]) | Growth Rate (U2OS; [8]) | Growth Rate (U2OS; [10]) | Growth Rate (U2OS; [2]) | Growth Rate (HEK-293T; [3]) | Growth Rate (HEK-293T; [10]) | Growth Rate (HEK-293T; [4]) | further results
CC1=C(C#N)C(c2ccc3[nH]nc(C)c3c2)C(C#N)=C(C)N1 [BAY-474] | 0 | 1 | 1 | 0 | 1 | 1 | 1 | 0 | 0 | 0 | 1 | 0 | – | – | – | – | – | – | – | – | Growth Rate (U2OS; [3]): 0
CC(=O)C1=C(C)N(c2cccc(C(F)(F)F)c2)C(=O)N[C@H]1c1ccc(C#N)nc1 [BAY-677] | 0 | – | 0 | 0 | 0 | 0 | 0 | 0 | 1 | 1 | 0 | 0 | 1 | 1 | 0 | 0 | – | – | – | – | Growth Rate (Fibroblast; [8]): 1; Growth Rate (U2OS; [9]): 1; Growth Rate (U2OS; [3]): 1
Cc1nc(C2CCN(C(=O)c3ccc(OC(F)(F)F)cc3N)CC2)c2ncc(N3CCN(C)CC3)cc2n1 [BAY-693] | 0 | 1 | 1 | 1 | 1 | 1 | 1 | 0 | 0 | 0 | 1 | 0 | – | – | 1 | 1 | 1 | – | – | – | Growth Rate (HEK-293T; [9]): 1; Growth Rate (Fibroblast; [9]): 0; Growth Rate (U2OS; [3]): 0
O=C(O)[C@@H]1[C@@H](Cn2nnc3ccccc3c2=O)CC[C@H]1C(=O)c1ccc(OCCC2CCOCC2)cc1 [BAY-694] | 0 | – | 0 | 0 | 1 | 1 | 0 | 0 | 1 | 0 | – | 1 | 1 | 1 | – | – | 0 | 0 | 0 | – | Growth Rate (HEK-293T; [9]): 1; Growth Rate (HEK-293T; [8]): 1; Growth Rate (Fibroblast; [9]): 1; Growth Rate (Fibroblast; [10]): 0; Growth Rate (Fibroblast; [7]): 0; Growth Rate (Fibroblast; [2]): 1; Growth Rate (U2OS; [3]): 0
O=C(NCc1ncc(C(F)(F)F)cc1Cl)c1ccc2c(c1)C1(CCS(=O)(=O)CC1)[C@H](C1CC1)N2S(=O)(=O)c1ccc(F)cc1 [BAY-784] | 0 | 0 | 0 | 0 | 1 | – | 1 | 0 | 0 | 0 | – | 0 | 1 | 1 | 0 | 1 | 1 | 1 | 0 | 1 | Growth Rate (HEK-293T; [7]): 0; Growth Rate (Fibroblast; [7]): 1; Growth Rate (U2OS; [3]): 1
O=C(Nc1cnc(Oc2ccc(F)cc2)nc1)N1CCc2ncccc2[C@@H]1c1ccc(F)cc1 [BAY-899] | 0 | – | 0 | 1 | 1 | 1 | 1 | 0 | 1 | 1 | – | 0 | 0 | 0 | – | – | 1 | 0 | – | 0 | Growth Rate (HEK-293T; [8]): 1
C[C@@]1(Cc2ccc(C#N)cc2)C(=O)N(c2cc(Cl)cc(Cl)c2)c2ncc(C(=O)NC3(c4nc(C5CCC5)no4)CC3)n21 [BI 9446] | 0 | – | 0 | 0 | 0 | 0 | 0 | 0 | 1 | 1 | 0 | 1 | 0 | 0 | 0 | 0 | 0 | 0 | – | 0 | –
O=c1nc(-c2ccccn2)sc2ccccc12 [BTZO-1] | 0 | – | 1 | 0 | 0 | 0 | 0 | 0 | 0 | 1 | 0 | 1 | 1 | 1 | – | 1 | 0 | 1 | – | 1 | Growth Rate (HEK-293T; [9]): 1; Growth Rate (Fibroblast; [9]): 0; Growth Rate (Fibroblast; [8]): 1; Growth Rate (Fibroblast; [10]): 1; Growth Rate (Fibroblast; [7]): 1; Growth Rate (Fibroblast; [2]): 1; Growth Rate (U2OS; [3]): 1
CN([C@@H]1CCc2c(CC(=O)O)c3cc(S(C)(=O)=O)ccc3n2C1)S(=O)(=O)c1ccc(F)cc1 [CRTH2-negative-control] | 1 | 1 | 0 | – | 1 | 1 | 1 | 0 | 1 | 0 | 1 | 0 | 0 | 0 | – | 0 | – | 0 | 1 | 0 | Growth Rate (HEK-293T; [9]): 0; Growth Rate (HEK-293T; [8]): 1; Growth Rate (HEK-293T; [7]): 1; Growth Rate (Fibroblast; [8]): 0; Growth Rate (Fibroblast; [10]): 0; Growth Rate (Fibroblast; [7]): 0; Growth Rate (Fibroblast; [2]): 0; Growth Rate (U2OS; [3]): 0
Cc1cccc([C@H](C)c2c[nH]cn2)c1C.Cl [DEXMEDETOMIDINE HYDROCHLORIDE] | 0 | – | 0 | – | – | – | 1 | 0 | 1 | 0 | 1 | 1 | 0 | 0 | 0 | – | – | 0 | – | 0 | Growth Rate (Fibroblast; [10]): 1; Growth Rate (Fibroblast; [7]): 1
N#CC(Cc1ccc(O)cc1)c1ccc(O)cc1 (centres undefined) [DIARYLPROPIONITRILE] | 1 | 1 | 0 | 0 | 0 | 0 | 0 | – | 1 | 0 | – | 1 | 0 | 0 | 0 | 0 | 0 | 1 | 1 | 0 | Growth Rate (HEK-293T; [9]): 0; Growth Rate (HEK-293T; [7]): 1
O=C(O)C[C@H]1CCc2c1[nH]c1ccc(OCc3ccc(C4CCCC4)c(C(F)(F)F)c3)cc21 [ETRASIMOD] | 0 | – | 0 | 1 | 1 | 1 | 0 | 0 | 0 | 1 | – | 1 | 0 | 0 | 0 | 1 | – | 1 | 1 | 0 | Growth Rate (HEK-293T; [7]): 1; Growth Rate (Fibroblast; [9]): 1; Growth Rate (Fibroblast; [8]): 0; Growth Rate (Fibroblast; [2]): 1; Growth Rate (U2OS; [9]): 1
CC(=O)OCC(=O)[C@@]1(O)CC[C@H]2[C@@H]3CCC4=CC(=O)CC[C@]4(C)[C@@]3(F)[C@@H](O)C[C@@]21C [FLUDROCORTISONE ACETATE] | 0 | 0 | 0 | 0 | 1 | 1 | 1 | 0 | – | 1 | – | 1 | 1 | 1 | 0 | 1 | – | 1 | – | 1 | Growth Rate (HEK-293T; [8]): 0; Growth Rate (U2OS; [9]): 1
CNCCC(Oc1ccc(C(F)(F)F)cc1)c1ccccc1.Cl (centres undefined) [FLUOXETINE HYDROCHLORIDE] | – | – | 0 | 1 | 0 | 1 | 1 | – | – | 1 | – | 1 | 0 | 0 | 1 | 1 | – | 0 | 1 | 0 | Growth Rate (HEK-293T; [9]): 0; Growth Rate (HEK-293T; [8]): 1; Growth Rate (Fibroblast; [8]): 0; Growth Rate (Fibroblast; [7]): 0; Growth Rate (Fibroblast; [2]): 0
CNC(=N)NCCC[C@H](NC(=O)[C@H](CC(C)C)NC(=O)NNC(=O)[C@H](Cc1ccccc1)NC(=O)[C@H](CO)NC(=O)[C@H](CC(N)=O)NC(=O)[C@@H](Cc1ccncc1)NC(=O)[C@H](N)Cc1ccc(O)cc1)C(=O)N[C@@H](Cc1ccccc1)C(N)=O [KISS1-305] (H-[dY][d4Pal]NSF[azaGly]L[Arg(Me)]F-NH2) | 0 | – | 0 | 0 | 0 | 0 | 0 | – | 1 | 0 | – | 0 | 0 | 0 | 1 | – | – | 0 | 0 | 1 | Growth Rate (U2OS; [9]): 0
CCc1cc(C(C)=O)c(O)cc1OCCCCCC(C)(C)c1nn[nH]n1 [LY-255283] | 0 | 1 | 0 | 0 | 0 | 0 | 0 | 0 | 1 | 1 | 0 | 1 | 0 | 0 | 0 | 0 | 0 | 1 | – | 0 | Growth Rate (HEK-293T; [8]): 0
COc1ccc(CNC(=O)c2cc(-c3cncc(Cl)c3)cnc2-c2ccccn2)nc1OC [MK-1064] | 0 | 0 | 0 | 0 | 0 | 1 | 0 | 0 | 1 | 1 | 0 | 1 | 0 | 1 | 0 | – | – | 0 | 0 | 1 | Growth Rate (Fibroblast; [2]): 1
